Earlier results in publication PMC9851200, “Multiparameter phenotypic screening for endogenous TFEB and TFE3 translocation identifies novel chemical series modulating lysosome function” (Autophagy, 2022).

Columns and labels:
Set-up in all cases: method as in original PKIS2 published data
[1] = molecular target: T1, kinases (KINOMEscan panel) (Homo sapiens, UniProt Q9UKI8); details: kinase TLK1; Published KINOMEscan; ref original PKIS2 published data; cited from earlier work
T1 sequence (Q9UKI8 1-766): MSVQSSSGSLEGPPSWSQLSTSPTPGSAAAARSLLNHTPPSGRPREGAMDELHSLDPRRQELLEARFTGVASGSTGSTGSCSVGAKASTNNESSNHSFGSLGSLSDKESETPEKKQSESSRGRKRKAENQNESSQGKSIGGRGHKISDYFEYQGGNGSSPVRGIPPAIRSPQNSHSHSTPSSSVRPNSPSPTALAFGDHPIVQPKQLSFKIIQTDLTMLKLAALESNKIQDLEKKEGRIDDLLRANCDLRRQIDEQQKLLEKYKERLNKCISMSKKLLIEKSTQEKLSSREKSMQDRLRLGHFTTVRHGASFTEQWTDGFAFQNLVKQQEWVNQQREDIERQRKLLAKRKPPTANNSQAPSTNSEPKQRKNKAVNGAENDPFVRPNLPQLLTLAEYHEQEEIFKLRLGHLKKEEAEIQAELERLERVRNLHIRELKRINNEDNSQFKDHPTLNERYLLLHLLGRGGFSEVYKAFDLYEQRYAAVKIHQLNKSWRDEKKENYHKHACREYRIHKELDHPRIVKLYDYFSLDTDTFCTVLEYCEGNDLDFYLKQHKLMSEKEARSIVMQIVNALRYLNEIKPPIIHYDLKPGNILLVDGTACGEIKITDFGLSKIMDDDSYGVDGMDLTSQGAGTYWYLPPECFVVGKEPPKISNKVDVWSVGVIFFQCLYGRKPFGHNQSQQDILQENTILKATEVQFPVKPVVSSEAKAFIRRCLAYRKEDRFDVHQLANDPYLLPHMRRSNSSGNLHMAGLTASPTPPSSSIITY

[2] = molecular target: kinases (KINOMEscan panel) (Homo sapiens, UniProt Q8TDX7); details: NEK7; Published KINOMEscan; ref original PKIS2 published data; cited from earlier work
[3] = molecular target: kinases (KINOMEscan panel) (Homo sapiens, UniProt Q13464); details: ROCK1; Published KINOMEscan; ref original PKIS2 published data; cited from earlier work
[4] = molecular target: kinases (KINOMEscan panel) (Homo sapiens, UniProt P19525); details: kinase ElF2AK2; Published KINOMEscan; ref original PKIS2 published data; cited from earlier work
[5] = molecular target: T2, kinases (KINOMEscan panel) (Homo sapiens, UniProt Q13237); details: PRKG2; Published KINOMEscan; ref original PKIS2 published data; cited from earlier work
T2 sequence (Q13237 1-762): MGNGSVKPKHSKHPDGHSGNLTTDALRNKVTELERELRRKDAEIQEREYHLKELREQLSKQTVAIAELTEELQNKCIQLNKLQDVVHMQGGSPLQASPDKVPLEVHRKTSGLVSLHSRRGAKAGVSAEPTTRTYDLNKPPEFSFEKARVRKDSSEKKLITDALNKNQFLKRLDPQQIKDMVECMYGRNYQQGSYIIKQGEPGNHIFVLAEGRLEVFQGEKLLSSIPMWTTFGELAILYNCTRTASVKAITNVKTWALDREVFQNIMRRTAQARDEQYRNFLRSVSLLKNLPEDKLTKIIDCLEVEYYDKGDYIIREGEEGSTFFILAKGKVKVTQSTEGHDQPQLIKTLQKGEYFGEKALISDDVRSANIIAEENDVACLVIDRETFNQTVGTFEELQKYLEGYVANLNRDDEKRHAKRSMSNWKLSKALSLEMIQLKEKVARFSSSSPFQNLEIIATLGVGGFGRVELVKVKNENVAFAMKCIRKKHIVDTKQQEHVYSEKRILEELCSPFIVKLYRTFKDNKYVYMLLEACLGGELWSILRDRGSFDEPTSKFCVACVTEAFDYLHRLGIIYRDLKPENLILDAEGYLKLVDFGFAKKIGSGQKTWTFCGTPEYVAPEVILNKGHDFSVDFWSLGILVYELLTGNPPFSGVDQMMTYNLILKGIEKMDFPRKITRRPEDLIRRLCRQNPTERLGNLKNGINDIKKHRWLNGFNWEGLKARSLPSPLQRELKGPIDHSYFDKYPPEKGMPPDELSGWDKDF

[6] = molecular target: T3, kinases (KINOMEscan panel) (Homo sapiens, UniProt Q9BRS2); details: RIOK1; Published KINOMEscan; ref original PKIS2 published data; cited from earlier work
T3 sequence (Q9BRS2 1-568): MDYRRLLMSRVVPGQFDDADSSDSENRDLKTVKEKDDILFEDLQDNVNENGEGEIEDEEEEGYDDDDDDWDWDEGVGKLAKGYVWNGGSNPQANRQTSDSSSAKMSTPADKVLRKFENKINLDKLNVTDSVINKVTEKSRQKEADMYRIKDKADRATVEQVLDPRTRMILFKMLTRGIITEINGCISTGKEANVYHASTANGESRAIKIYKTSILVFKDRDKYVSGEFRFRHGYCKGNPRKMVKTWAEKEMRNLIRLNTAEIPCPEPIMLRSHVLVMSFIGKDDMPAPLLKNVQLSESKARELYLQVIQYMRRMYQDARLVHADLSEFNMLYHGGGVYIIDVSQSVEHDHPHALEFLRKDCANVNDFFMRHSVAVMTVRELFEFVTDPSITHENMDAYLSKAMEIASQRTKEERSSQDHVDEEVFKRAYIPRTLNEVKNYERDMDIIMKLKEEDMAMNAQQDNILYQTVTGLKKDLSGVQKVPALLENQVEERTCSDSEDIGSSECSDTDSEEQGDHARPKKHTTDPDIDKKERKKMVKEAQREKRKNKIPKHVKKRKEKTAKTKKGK

[7] = molecular target: kinases (KINOMEscan panel) (Homo sapiens, UniProt P21802); details: kinase FGFR2; Published KINOMEscan; ref original PKIS2 published data; cited from earlier work
[8] = molecular target: kinases (KINOMEscan panel) (Homo sapiens, UniProt P08631); details: kinase HCK; Published KINOMEscan; ref original PKIS2 published data; cited from earlier work
[9] = molecular target: kinases (KINOMEscan panel) (Homo sapiens, UniProt Q00537); details: kinase CDK17; Published KINOMEscan; ref original PKIS2 published data; cited from earlier work
kinases (KINOMEscan panel) (Homo sapiens, UniProt Q00537), sequence (Q00537 whole entry): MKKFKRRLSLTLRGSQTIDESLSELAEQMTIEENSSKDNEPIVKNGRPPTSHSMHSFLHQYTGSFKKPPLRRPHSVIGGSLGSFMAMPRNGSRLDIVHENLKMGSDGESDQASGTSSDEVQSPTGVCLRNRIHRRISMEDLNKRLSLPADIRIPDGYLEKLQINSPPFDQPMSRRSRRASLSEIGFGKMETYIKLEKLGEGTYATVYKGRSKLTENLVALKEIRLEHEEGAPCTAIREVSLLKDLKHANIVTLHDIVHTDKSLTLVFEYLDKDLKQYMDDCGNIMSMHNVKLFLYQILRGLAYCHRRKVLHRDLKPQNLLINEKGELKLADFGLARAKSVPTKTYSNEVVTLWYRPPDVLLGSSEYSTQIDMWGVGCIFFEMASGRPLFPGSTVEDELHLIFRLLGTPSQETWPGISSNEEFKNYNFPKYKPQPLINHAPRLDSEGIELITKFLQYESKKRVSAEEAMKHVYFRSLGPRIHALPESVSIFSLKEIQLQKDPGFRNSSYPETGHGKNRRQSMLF

kinases (KINOMEscan panel) (Homo sapiens, UniProt P08631), sequence (P08631 whole entry): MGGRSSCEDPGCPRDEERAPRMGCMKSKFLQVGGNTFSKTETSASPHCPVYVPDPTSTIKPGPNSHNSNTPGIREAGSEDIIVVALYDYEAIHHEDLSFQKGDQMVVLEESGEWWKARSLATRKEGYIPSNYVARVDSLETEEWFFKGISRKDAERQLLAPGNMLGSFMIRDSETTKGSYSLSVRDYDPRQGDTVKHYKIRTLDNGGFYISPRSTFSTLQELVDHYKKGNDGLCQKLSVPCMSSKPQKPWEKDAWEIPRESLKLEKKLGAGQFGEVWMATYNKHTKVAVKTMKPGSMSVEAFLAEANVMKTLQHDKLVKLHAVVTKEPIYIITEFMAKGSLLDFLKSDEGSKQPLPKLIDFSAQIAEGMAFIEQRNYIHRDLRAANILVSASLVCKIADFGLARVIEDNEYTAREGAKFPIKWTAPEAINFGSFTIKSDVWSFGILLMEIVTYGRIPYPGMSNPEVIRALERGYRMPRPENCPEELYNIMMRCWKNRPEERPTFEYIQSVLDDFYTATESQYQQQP
kinases (KINOMEscan panel) (Homo sapiens, UniProt P19525), sequence (P19525 whole entry): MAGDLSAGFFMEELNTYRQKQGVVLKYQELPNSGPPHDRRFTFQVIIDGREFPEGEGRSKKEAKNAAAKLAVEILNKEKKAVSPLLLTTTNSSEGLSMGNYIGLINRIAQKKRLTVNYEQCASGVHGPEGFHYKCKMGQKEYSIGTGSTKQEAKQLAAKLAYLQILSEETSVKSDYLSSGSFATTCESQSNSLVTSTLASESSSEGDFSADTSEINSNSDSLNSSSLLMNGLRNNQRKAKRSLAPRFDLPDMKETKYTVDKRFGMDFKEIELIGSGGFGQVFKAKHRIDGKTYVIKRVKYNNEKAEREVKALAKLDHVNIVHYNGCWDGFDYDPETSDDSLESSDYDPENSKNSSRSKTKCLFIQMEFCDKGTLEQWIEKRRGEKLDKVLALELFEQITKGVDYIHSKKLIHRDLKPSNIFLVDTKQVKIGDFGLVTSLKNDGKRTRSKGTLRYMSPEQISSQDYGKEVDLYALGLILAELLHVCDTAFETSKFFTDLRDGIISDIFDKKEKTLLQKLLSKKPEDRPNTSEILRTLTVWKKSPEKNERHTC
kinases (KINOMEscan panel) (Homo sapiens, UniProt P21802), sequence (P21802 22-821): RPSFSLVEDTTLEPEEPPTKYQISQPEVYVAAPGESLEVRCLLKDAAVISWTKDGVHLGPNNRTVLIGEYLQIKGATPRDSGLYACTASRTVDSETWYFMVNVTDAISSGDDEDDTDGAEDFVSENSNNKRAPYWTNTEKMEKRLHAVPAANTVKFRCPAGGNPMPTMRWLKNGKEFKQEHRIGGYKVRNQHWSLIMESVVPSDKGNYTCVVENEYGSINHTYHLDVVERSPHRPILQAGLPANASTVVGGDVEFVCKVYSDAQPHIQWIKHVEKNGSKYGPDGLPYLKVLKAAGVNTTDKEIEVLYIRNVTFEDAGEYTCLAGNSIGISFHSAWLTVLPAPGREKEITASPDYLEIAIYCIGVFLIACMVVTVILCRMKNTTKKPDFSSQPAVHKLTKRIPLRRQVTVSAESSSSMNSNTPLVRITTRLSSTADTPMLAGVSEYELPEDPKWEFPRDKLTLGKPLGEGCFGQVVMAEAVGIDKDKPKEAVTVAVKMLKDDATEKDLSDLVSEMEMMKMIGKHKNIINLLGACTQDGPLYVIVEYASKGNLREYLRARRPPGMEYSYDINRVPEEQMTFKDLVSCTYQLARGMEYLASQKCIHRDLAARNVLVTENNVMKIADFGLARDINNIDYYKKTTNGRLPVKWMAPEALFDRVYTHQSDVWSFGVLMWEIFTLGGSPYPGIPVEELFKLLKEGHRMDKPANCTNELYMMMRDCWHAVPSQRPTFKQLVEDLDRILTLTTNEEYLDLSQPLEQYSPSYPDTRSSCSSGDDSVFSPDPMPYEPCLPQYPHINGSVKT
kinases (KINOMEscan panel) (Homo sapiens, UniProt Q8TDX7), sequence (Q8TDX7 whole entry): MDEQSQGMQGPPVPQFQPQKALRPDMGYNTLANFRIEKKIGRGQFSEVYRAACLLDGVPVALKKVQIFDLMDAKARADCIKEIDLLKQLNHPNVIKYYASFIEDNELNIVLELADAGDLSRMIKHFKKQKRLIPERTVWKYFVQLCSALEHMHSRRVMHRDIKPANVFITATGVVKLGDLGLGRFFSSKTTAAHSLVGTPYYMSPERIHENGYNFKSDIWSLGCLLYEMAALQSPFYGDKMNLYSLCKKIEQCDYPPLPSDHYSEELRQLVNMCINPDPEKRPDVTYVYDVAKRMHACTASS
kinases (KINOMEscan panel) (Homo sapiens, UniProt Q13464), sequence (Q13464 whole entry): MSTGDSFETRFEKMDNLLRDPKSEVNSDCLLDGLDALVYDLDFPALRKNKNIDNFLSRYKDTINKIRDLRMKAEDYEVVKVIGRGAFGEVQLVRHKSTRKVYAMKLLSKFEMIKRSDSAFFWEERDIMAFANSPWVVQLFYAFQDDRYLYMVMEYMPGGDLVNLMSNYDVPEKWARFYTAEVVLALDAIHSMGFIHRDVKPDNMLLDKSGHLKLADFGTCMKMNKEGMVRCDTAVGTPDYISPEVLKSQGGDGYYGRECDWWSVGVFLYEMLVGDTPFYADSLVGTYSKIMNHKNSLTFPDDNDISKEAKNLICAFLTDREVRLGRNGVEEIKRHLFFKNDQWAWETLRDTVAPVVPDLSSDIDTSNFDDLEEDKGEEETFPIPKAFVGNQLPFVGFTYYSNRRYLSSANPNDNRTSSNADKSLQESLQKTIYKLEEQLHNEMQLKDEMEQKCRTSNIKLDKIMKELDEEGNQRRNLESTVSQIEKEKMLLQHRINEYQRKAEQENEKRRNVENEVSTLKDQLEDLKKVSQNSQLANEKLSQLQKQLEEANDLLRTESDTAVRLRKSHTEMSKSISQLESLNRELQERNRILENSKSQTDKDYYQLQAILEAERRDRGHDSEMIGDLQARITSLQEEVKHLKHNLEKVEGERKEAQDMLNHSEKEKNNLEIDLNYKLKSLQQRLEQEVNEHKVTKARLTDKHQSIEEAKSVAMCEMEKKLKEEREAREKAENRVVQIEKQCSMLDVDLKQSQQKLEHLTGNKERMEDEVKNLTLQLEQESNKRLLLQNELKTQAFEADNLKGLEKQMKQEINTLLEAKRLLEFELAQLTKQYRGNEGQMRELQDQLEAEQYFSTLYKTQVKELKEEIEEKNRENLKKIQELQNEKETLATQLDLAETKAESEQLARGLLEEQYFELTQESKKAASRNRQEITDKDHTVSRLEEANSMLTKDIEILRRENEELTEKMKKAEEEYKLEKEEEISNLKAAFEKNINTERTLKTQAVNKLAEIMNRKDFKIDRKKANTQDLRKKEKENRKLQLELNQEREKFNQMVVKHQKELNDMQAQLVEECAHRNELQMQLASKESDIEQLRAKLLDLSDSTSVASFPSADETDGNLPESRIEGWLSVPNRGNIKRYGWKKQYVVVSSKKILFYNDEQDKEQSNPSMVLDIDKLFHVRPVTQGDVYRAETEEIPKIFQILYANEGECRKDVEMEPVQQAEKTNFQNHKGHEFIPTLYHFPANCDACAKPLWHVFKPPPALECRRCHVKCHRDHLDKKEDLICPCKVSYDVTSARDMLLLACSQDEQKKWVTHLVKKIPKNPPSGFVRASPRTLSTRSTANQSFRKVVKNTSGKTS

Question: Which “KINOMEscan TLK1” value [1] does the source give for `Cc1cccc(-c2nc(Nc3ccncc3)c3ccccc3n2)n1` [NK215] here?
Answer: 0

Question: And the “KINOMEscan NEK7” value [2]?
Answer: 0

Question: And the “KINOMEscan ROCK1” value [3]?
Answer: 0

Question: What about the “KINOMEscan ElF2AK2” value [4] of the same compound?
Answer: 2

Question: And the “KINOMEscan PRKG2” value [5]?
Answer: 0

Question: What about the “KINOMEscan RIOK1” value [6] of the same compound?
Answer: 0

Question: And the “KINOMEscan FGFR2” value [7]?
Answer: 7

Question: And the “KINOMEscan HCK” value [8]?
Answer: 11

Question: And the “KINOMEscan CDK17” value [9]?
Answer: 10
